Experimental data as given in patent US20090042964A1, “AMINO-5-[SUBSTITUTED-4-(DIFLUOROMETHOXY)PHENYL]-5-PHENYLIMIDAZOLONE COMPOUNDS AS BETA-SECRETASE INHIBITORS” (Wyeth, priority 2007, published 2009).

Each compound was assayed against human BACE1 (Homo sapiens, UniProt P56817) (assay: Fluorescent kinetic assay, evaluation of BACE1 binding affinity of test compounds). Details: 10 nM human BACE1, 25 μM substrate WABC-6, pH 4.5, room temperature; read-out: BACE1 IC50.
Assay type: biochemical
Method in brief: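 Kinetic fluorescence assay: enzyme added last to inhibitor and substrate mix, reading started immediately; substrate at 100 μM working dilution (25 μL in 100 μL total). Buffer 66.7 mM Na-acetate pH 4.5 with 0.0667% CHAPS for inhibitor and enzyme dilutions; enzyme stock quantified at 280 nm.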

human BACE1, sequence (P56817 46-501): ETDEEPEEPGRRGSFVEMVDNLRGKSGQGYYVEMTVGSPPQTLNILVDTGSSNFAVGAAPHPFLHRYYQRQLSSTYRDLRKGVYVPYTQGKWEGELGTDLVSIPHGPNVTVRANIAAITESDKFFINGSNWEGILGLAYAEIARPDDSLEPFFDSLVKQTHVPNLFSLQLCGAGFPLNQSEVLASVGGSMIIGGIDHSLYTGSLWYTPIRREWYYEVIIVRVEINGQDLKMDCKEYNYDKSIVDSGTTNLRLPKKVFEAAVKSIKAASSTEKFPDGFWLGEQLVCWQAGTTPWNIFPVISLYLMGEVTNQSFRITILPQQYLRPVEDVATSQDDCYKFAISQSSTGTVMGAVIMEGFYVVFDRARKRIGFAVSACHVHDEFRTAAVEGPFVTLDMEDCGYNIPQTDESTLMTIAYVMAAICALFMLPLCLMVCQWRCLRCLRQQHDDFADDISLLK

Compound	IC50
CN1C(=O)C(c2ccccc2)(c2ccc(OC(F)F)c(CCO)c2)N=C1N (stereo not shown) [Example 140, 2-Amino-5-[4-(difluoromethoxy)-3-(2-hydroxyethyl)phenyl]-3-methyl-5-phenyl-3,5-dihydro-4H-imidazol-4-one]	0.11 to 1 µM
CCOc1cccc(C2(c3ccc(OC(F)F)c(Cl)c3)N=C(N)N(C)C2=O)c1 (stereo not shown) [Example 36, 2-Amino-5-[3-chloro-4-(difluoromethoxy)phenyl]-5-(3-ethoxyphenyl)-3-methyl-3,5-dihydro-4H-imidazol-4-one]	0.11 to 1 µM
CCc1cc([C@@]2(c3ccc(F)c(C#CCC(C)C)c3)N=C(N)N(C)C2=O)ccc1OC(F)F [Example 151, (5S)-2-Amino-5-[4-(difluoromethoxy)-3-ethylphenyl]-5-[4-fluoro-3-(4-methylpent-1-yn-1-yl)phenyl]-3-methyl-3,5-dihydro-4H-imidazol-4-one]	> 1 µM
CCc1cc([C@@]2(c3ccc(F)c(OCCCF)c3)N=C(N)N(C)C2=O)ccc1OC(F)F [Example 121, (5S)-2-Amino-5-[4-(difluoromethoxy)-3-ethylphenyl]-5-[4-fluoro-3-(3-fluoropropoxy)phenyl]-3-methyl-3,5-dihydro-4H-imidazol-4-one]	> 1 µM
CN1C(=O)[C@@](c2ccc(F)c(C#CCCF)c2)(c2ccc(OC(F)F)c(C3CC3)c2)N=C1N [Example 214, (5S)-2-amino-5-[3-cyclopropyl-4-(difluoromethoxy)phenyl]-5-[4-fluoro-3-(4-fluorobut-1-yn-1-yl)phenyl]-3-methyl-3,5-dihydro-4H-imidazol-4-one]	> 1 µM
Cc1cc([C@@]2(c3cccc(C#CCF)c3)N=C(N)N(C)C2=O)ccc1OC(F)F [Example 200, (5R)-2-amino-5-[4-(difluoromethoxy)-3-methylphenyl]-5-[3-(3-fluoroprop-1-yn-1-yl)phenyl]-3-methyl-3,5-dihydro-4H-imidazol-4-one]	> 1 µM
2-Amino-5-[4-(difluoromethoxy)-3-(fluoromethyl)phenyl]-3-methyl-5-phenyl-3,5-dihydro-4H-imidazol-4-one [Example 14]	0.11 to 1 µM
CN1C(=O)[C@@](c2cccc(C#CCCCO)c2)(c2ccc(OC(F)F)c(C3CC3)c2)N=C1N (single isomer, unassigned) [Example 189]	0.11 to 1 µM
CCCC#Cc1cc([C@]2(c3ccc(OC(F)F)c(C)c3)N=C(N)N(C)C2=O)ccc1F (single isomer, unassigned) [Example 73]	0.11 to 1 µM
CCCC#Cc1cccc([C@@]2(c3ccc(OC(F)F)c(C)c3)N=C(N)N(C)C2=O)c1 [Example 78, (5S)-2-amino-5-[4-(difluoromethoxy)-3-methylphenyl]-3-methyl-5-(3-pent-1-yn-1-ylphenyl)-3,5-dihydro-4H-imidazol-4-one]	< 0.1 µM
CCCc1cc([C@]2(c3ccccc3)N=C(N)N(C)C2=O)ccc1OC(F)F (single isomer, unassigned) [Example 80]	> 1 µM
CCCC#Cc1cccc(C2(c3ccc(OC(F)F)c(C4CC4)c3)N=C(N)N(C)C2=O)c1 (stereo not shown) [Example 172, 2-amino-4-(3-cyclopropyl-4-(difluoromethoxy)phenyl)-1-methyl-4-(3-(pent-1-ynyl)phenyl)-1H-imidazol-5(4H)-one]	0.11 to 1 µM
CN1C(=O)[C@@](c2ccc(F)c(OCCCF)c2)(c2ccc(OC(F)F)c(C3CC3)c2)N=C1N (single isomer, unassigned) [Example 87]	> 1 µM
CCCOc1cc([C@]2(c3ccc(OC(F)F)c(C)c3)N=C(N)N(C)C2=O)ccc1F [Example 115, (5S)-2-Amino-5-[4-(difluoromethoxy)-3-methylphenyl]-5-(4-fluoro-3-propoxyphenyl)-3-methyl-3,5-dihydro-4H-imidazol-4-one]	0.11 to 1 µM

Other lines, results leading:

IC50	Compound
< 0.1 µM	CCc1cc([C@]2(c3ccc(F)c(OCCC(F)F)c3)N=C(N)N(C)C2=O)ccc1OC(F)F [Example 136, (5R)-2-Amino-5-[4-(difluoromethoxy)-3-ethylphenyl]-5-[3-(3,3-difluoropropoxy)-4-fluorophenyl]-3-methyl-3,5-dihydro-4H-imidazol-4-one]
< 0.1 µM	CN1C(=O)C(c2ccccc2)(c2ccc(OC(F)F)c(CCCl)c2)N=C1N (stereo not shown) [Example 141, 2-Amino-5-[4-(difluoromethoxy)-3-(2-chloroethyl)phenyl]-3-methyl-5-phenyl-3,5-dihydro-4H-imidazol-4-one]
< 0.1 µM	C/C=C/c1cccc(C2(c3ccc(OC(F)F)c(C)c3)N=C(N)N(C)C2=O)c1 (stereo not shown) [Example 61, 2-Amino-5-[4-(difluoromethoxy)-3-methylphenyl]-3-methyl-5-[((E)-3-prop-1-enyl)phenyl]-3,5-dihydro-4H-imidazol-4-one]
< 0.1 µM	Cc1cc(C2(c3cccc(/C=C/CCF)c3)N=C(N)N(C)C2=O)ccc1OC(F)F (stereo not shown) [Example 63, 2-Amino-5-[4-(difluoromethoxy)-3-methylphenyl]-5-[3-((E)-4-fluorobut-1-enyl)phenyl]-3-methyl-3,5-dihydro-4H-imidazol-4-one]
< 0.1 µM	CCc1cc(C2(c3ccc(F)c(OCCCF)c3)N=C(N)N(C)C2=O)ccc1OC(F)F (stereo in doubt) [Example 122, (5S)-2-Amino-5-[4-(difluoromethoxy)-3-ethylphenyl]-5-[4-fluoro-3-(3-fluoropropoxy)phenyl]-3-methyl-3,5-dihydro-4H-imidazol-4-one]
< 0.1 µM	Cc1cc(C2(c3ccc(F)c(OCCCF)c3)N=C(N)N(C)C2=O)ccc1OC(F)F (stereo not shown) [Example 108, 2-Amino-5-[4-(difluoromethoxy)-3-methylphenyl]-5-[4-fluoro-3-(3-fluoropropoxy)phenyl]-3-methyl-3,5-dihydro-4H-imidazol-4-one]
< 0.1 µM	Cc1cc(C2(c3ccc(F)c(C#CCCF)c3)N=C(N)N(C)C2=O)ccc1OC(F)F (stereo not shown) [Example 203, 2-amino-5-[4-(difluoromethoxy)-3-methylphenyl]-5-[4-fluoro-3-(4-fluorobut-1-yn-1-yl)phenyl]-3-methyl-3,5-dihydro-4H-imidazol-4-one]
< 0.1 µM	Cc1cc([C@]2(c3ccc(F)c(C#CCCF)c3)N=C(N)N(C)C2=O)ccc1OC(F)F [Example 205, (5R)-2-amino-5-[4-(difluoromethoxy)-3-methylphenyl]-5-[4-fluoro-3-(4-fluorobut-1-yn-1-yl)phenyl]-3-methyl-3,5-dihydro-4H-imidazol-4-one]
< 0.1 µM	CN1C(=O)C(c2cccc(OCC(F)F)c2)(c2ccc(OC(F)F)c(Cl)c2)N=C1N (stereo not shown) [Example 38, 2-Amino-5-[3-chloro-4-(difluoromethoxy)phenyl]-5-[3-(2,2-difluoroethoxy)phenyl]-3-methyl-3,5-dihydro-4H-imidazol-4-one]
< 0.1 µM	Cc1cc(C2(c3ccc(F)c(/C=C/CCF)c3)N=C(N)N(C)C2=O)ccc1OC(F)F (stereo not shown) [Example 58, 2-Amino-5-[4-(difluoromethoxy)-3-methylphenyl]-5-[4-fluoro-3-((E)-4-fluorobut-1-enyl)phenyl]-3-methyl-3,5-dihydro-4H-imidazol-4-one]
< 0.1 µM	C/C=C/c1cc(C2(c3ccc(OC(F)F)c(C)c3)N=C(N)N(C)C2=O)ccc1F (stereo not shown) [Example 59, 2-Amino-5-[4-(difluoromethoxy)-3-methylphenyl]-5-[4-fluoro-3-((E)-prop-1-enyl)phenyl]-3-methyl-3,5-dihydro-4H-imidazol-4-one]
< 0.1 µM	CN1C(=O)[C@](c2ccc(F)c(C#CCCF)c2)(c2ccc(OC(F)F)c(C3CC3)c2)N=C1N [Example 215, (5R)-2-amino-5-[3-cyclopropyl-4-(difluoromethoxy)phenyl]-5-[4-fluoro-3-(4-fluorobut-1-yn-1-yl)phenyl]-3-methyl-3,5-dihydro-4H-imidazol-4-one]
< 0.1 µM	CN1C(=O)C(c2cccc(C#CC3CC3)c2)(c2ccc(OC(F)F)c(C3CC3)c2)N=C1N (stereo not shown) [Example 176, 2-amino-4-(3-cyclopropyl-4-(difluoromethoxy)phenyl)-4-(3-(cyclopropylethynyl)phenyl)-1-methyl-1H-imidazol-5(4H)-one]
< 0.1 µM	CN1C(=O)C(c2ccc(OC(F)F)c(CCF)c2)(c2ccc(F)c(OCC(F)F)c2)N=C1N (stereo not shown) [Example 129, 2-Amino-5-[3-(2,2-difluoroethoxy)-4-fluorophenyl]-5-[4-(difluoromethoxy)-3-(2-fluoroethyl)phenyl]-3-methyl-3,5-dihydro-4H-imidazol-4-one]
< 0.1 µM	Cc1cc(C2(c3cccc(C#CCCF)c3)N=C(N)N(C)C2=O)ccc1OC(F)F (stereo not shown) [Example 202, 2-amino-5-[4-(difluoromethoxy)-3-methylphenyl]-5-[3-(4-fluorobut-1-yn-1-yl)phenyl]-3-methyl-3,5-dihydro-4H-imidazol-4-one]

Same assay, conditions: BACE1 IC50 μM, 10 nM human BACE1, 25 μM substrate WABC-6, pH 4.5, room temperature

Compound	IC50
Cc1cc(C2(c3ccc(F)c(CF)c3)N=C(N)N(C)C2=O)ccc1OC(F)F (stereo not shown) [Example 22, 2-Amino-5-[4-(difluoromethoxy)-3-methylphenyl]-5-[4-fluoro-3-(fluoromethyl)phenyl]-3-methyl-3,5-dihydro-4H-imidazol-4-one]	0.11 to 1 µM
CCc1cc([C@@]2(c3ccccc3)N=C(N)N(C)C2=O)ccc1OC(F)F [Example 24, (5R)-2-Amino-4-[4-(difluoromethoxy)-3-ethylphenyl]-1-methyl-4-phenyl-1H-imidazol-5(4H)-one]	> 1 µM
C=Cc1cc([C@@]2(c3ccccc3)N=C(N)N(C)C2=O)ccc1OC(F)F [Example 33, (5R)-2-Amino-5-[4-(difluoromethoxy)-3-vinylphenyl]-3-methyl-5-phenyl-3,5-dihydro-4H-imidazol-4-one]	< 0.1 µM
CN1C(=O)[C@](c2ccccc2)(c2ccc(OC(F)F)c(Cl)c2)N=C1N [Example 27, (5S)-2-Amino-5-[3-chloro-4-(difluoromethoxy)phenyl]-1-methyl-5-phenyl-3,5-dihydro-4H-imidazol-4-one]	0.11 to 1 µM
Cc1cc(C2(c3ccc(F)c(Br)c3)N=C(N)N(C)C2=O)ccc1OC(F)F (stereo not shown) [Example 31]	0.11 to 1 µM
